# What was measured:
# Format in all cases: in vivo, rat
# [1] = tested on: rats with spinal nerve ligature (Chung neuropathic pain model); assay: Chung neuropathic pain model, cold allodynia on cold plate (Example 3); conditions: morphine 128 mg/kg p.o.; for change of total number of paw withdrawal responses: cold plate
# From the text: (§1) The rats used in this experiment were the same rats used in Example 2. The materials and methods for this experiment were identical to those for Example 2 with the following exceptions: there was a 1-week washout between the two experiments, and the rats weighed 290-403 g at the start of this experiment. Prior to receiving drug treatment, all animals were submitted to tactile stimulation and assigned to treatment groups matched on the basis of their pain response. No account was taken of the treatment administered during the first experiment in assigning animals to treatment groups for this experiment.
# (§2) All of the substances were administered orally. Morphine, dissolved in distilled water, was administered at 128 mg/kg dose p.o. Rats were tested 30 minutes, 1 hour, 2 hours, and 4 hours after administration of the substances.
# Behavioral testing was carried out by measuring cold allodynia using an apparatus consisting of a cold plate maintained at 4±1° C. Rats were individually placed on the cold plate for a period of 5 minutes. The latency to the first paw withdrawal response and the number and total duration of withdrawal responses in 5 minutes were recorded for both the lesioned and the non-lesioned hindpaws.
# [2] = tested on: rats with spinal nerve ligature (Chung neuropathic pain model); assay: Chung neuropathic pain model, tactile stimulation, second experiment (Example 3); conditions: acute, morphine 128 mg/kg p.o.; for change of force inducing paw withdrawal vs vehicle: lesioned paw
# Description: (§3) For tactile stimulation, the animal was placed under an inverted Plexiglas® box (17×11×14 cm) on a grid floor. The tip of an electronic Von Frey probe (Bioseb, Model 1610, Chaville, France) was applied with increasing pressure to the non-lesioned hindpaw or the lesioned hindpaw. The force required to induce paw withdrawal was automatically recorded. This procedure was carried out three times for each paw, and the mean force per paw was calculated to provide basic scores per animal.
# as §1, §2
# [3] = tested on: rats with spinal nerve ligature (Chung neuropathic pain model); assay: Chung spinal nerve ligation (L5 and L6) neuropathic pain model, tactile stimulation with electronic Von Frey probe (Example 2)
# From the text: (§4) The Chung neuropathic pain model (Kim and Chung, Pain, 50: 355-363, 1992), employs spinal nerve ligation (SNL) in a rat. Tight ligature of spinal nerves in a rat is associated with hyperalgesia, allodynia and spontaneous pain. Antihyperalgesics reduce these chronic signs of pain hypersensitivity. Thus, the Chung model permits testing of the antihyperalgesic activity of compounds in rats with neuropathic pain. The Chung model constitutes a model for peripheral neuropathic pain in humans, and was employed as follows.
# (§5) Male Rj: Wistar (Han) rats, weighing 264-369 g at the beginning of the experiment, were obtained from Elevage Janvier, 53940 Le Genest-Saint-Isle, France. The rats were acclimatized to laboratory conditions for at least 5 days before the surgery phase of the experiment. The rats were housed in groups of five in macrolon cages (41×25×14 cm) on wood litter (Litalabo—SPPS, 95100 Argenteuil, France) with free access to food (code 113—SAFE, 91360 Epinay-sur-Orge, France) and water until tested. The animal houses were maintained under artificial lighting (12 hours) between 7:00 AM and 7:00 PM in a controlled ambient temperature of 21±3° C., and with relative humidity maintained at 40-70%.
# (§6) Rats (264-369 g) were anesthetized with sodium pentobarbital (50 mg/kg i.p.), and an incision at the L4-S2 level was made to expose the left L5 and L6 spinal nerves. A ligature was tied tightly around each nerve. The wound was then sutured. The rats received an i.m. injection of 50,000 IU penicillin G and were allowed to recover. At least 2 weeks after the surgery, when the chronic state was fully installed, rats were submitted consecutively to tactile and thermal stimulation of both the non-lesioned and the lesioned hindpaws.
# (§7) Doses of OPC-14523 were prepared in stock solutions (weight per volume, W/V), then in dilutions (volume per volume, V/V), as appropriate. The compound was dispersed in 0.5% tragacanth in distilled water. Morphine was dissolved in physiological saline as a reference standard for treatment of pain. The solutions for the test and reference substances were prepared fresh on the day of the experiment.
# (§8) The vehicle, OPC-14523, and reference (morphine) compound were each administered in a volume of 5 ml/kg body weight. The doses of OPC-14523 were expressed in mg of substance per kg body weight and administered orally (p.o.). The vehicle control was also administered orally. The dose of morphine was expressed in mg of hydrochloride salt per kg body weight and administered i.p.
# (§9) Each animal was tested at 30 minutes, 1 hour, 2 hours and 4 hours after the administration of a substance. Testing occurred in the morning.
# (§10) To evaluate chronic drug administration and hypersensitivity induction, animals received a second substance treatment in the afternoon, after acute testing. The animals then received twice-daily substance treatment for an additional 9 days. To test for induction of hypersensitivity, the animals were tested, on the ninth day, 30 minutes before the first substance administration in the morning. The effect of chronic administration was tested on the tenth day 30 minutes, 1 hour, 2 hours and 4 hours after the administration of the substance in the morning.
# as §3
# Prior to receiving drug treatment, all animals were submitted to tactile stimulation and assigned to treatment groups, matched on the basis of their pain response. Each treatment group consisted of eight rats. The testing was performed blind. […]
# [4] = tested on: rats with spinal nerve ligature (Chung neuropathic pain model); assay: Chung spinal nerve ligation (L5 and L6) neuropathic pain model, thermal stimulation (Example 2); conditions: for change of paw-withdrawal latency vs vehicle: morphine 16 mg/kg i.p.
# From the text: as §4, §5, §6, §7, §8, §9, §10
# An apparatus (Ugo Basile, Product reference: 7371, Comerio, Italy) consisted of six individual Plexiglas® boxes (17×11×14 cm) placed upon an elevated glass floor. A rat was placed in the box and left free to habituate for 10 minutes. Then, a mobile infrared radiant source was focused under the non-lesioned and lesioned hindpaws. The paw-withdrawal latencies were automatically recorded. Paw withdrawal interrupts the reflected radiation and switches off the counter and the light source. In order to prevent tissue damage, the test was terminated after 45 seconds if no reaction was noted.
# Prior to receiving drug treatment, all animals were submitted to tactile stimulation and assigned to treatment groups, matched on the basis of their pain response. […]
# [5] = hypersensitivity test after 8 days of twice daily administration, morphine
compound,measurement,setting,value
"CN1CC[C@]23c4c5ccc(O)c4O[C@H]2[C@@H](O)C=C[C@H]3[C@H]1C5 [Morphine, morphine, reference compound]",effect on paw-withdrawal latency of the first withdrawal,"[1]; cold plate 4°C, not statistically significant",tended to increase
same,change of total number of paw withdrawal responses,"[1]; 30 minutes, p<0.001",−61%
same,change of total number of paw withdrawal responses,"[1]; 1 hour, p<0.05",−65%
same,change of total number of paw withdrawal responses,"[1]; 2 hours, p<0.01",−51%
same,change of total number of paw withdrawal responses,"[1]; 4 hours, p<0.01",−56%
same,change of force inducing paw withdrawal vs vehicle,"[2]; 30 minutes, p<0.05",+137%
same,change of force inducing paw withdrawal vs vehicle,"[2]; 1 hour, p<0.01",+198%
same,change of force inducing paw withdrawal vs vehicle,"[2]; 2 hours, p=0.05",+168%
same,effect on force inducing paw withdrawal,[2]; non-lesioned paw,no effects
same,change of force inducing paw withdrawal vs vehicle,"[3]; acute, morphine 16 mg/kg i.p., lesioned paw, 30 minutes",+206%
same,change of force inducing paw withdrawal vs vehicle,"[3]; acute, morphine 16 mg/kg i.p., lesioned paw, 1 hour",+124%
same,effect on force inducing paw withdrawal,"[3]; acute, morphine 16 mg/kg i.p., lesioned paw, 2 hours",tended to increase
same,effect on force inducing paw withdrawal,"[3]; acute, morphine 16 mg/kg i.p., non-lesioned paw",no effects
same,change of force inducing paw withdrawal vs vehicle,"[3]; chronic, day 10, morphine, lesioned paw, 30 minutes, p<0.01",+86%
same,change of force inducing paw withdrawal vs vehicle,"[3]; chronic, day 10, morphine, lesioned paw, 1 hour, p<0.001",+223%
same,change of force inducing paw withdrawal vs vehicle,"[3]; chronic, day 10, morphine, lesioned paw, 2 hours, p=0.09",−50%
same,effect on force inducing paw withdrawal,"[3]; chronic, day 10, morphine, non-lesioned paw","weak, variable effects"
same,Force Inducing Paw Withdrawal (g) Lesioned Paw,[3]; [5],15.1 (NS) g
same,Force Inducing Paw Withdrawal (g) Non-lesioned Paw,[3]; [5],73.7 (NS) g
same,effect on force inducing paw withdrawal vs vehicle control,"[3]; hypersensitivity test, repeated treatment with morphine, lesioned or non-lesioned paw",no significant effects
same,change of paw-withdrawal latency vs vehicle,"[4]; acute, lesioned paw, 30 minutes",+132%
same,change of paw-withdrawal latency vs vehicle,"[4]; acute, lesioned paw, 1 hour",+121%
same,change of paw-withdrawal latency vs vehicle,"[4]; acute, lesioned paw, 4 hours",+204%
same,change of paw-withdrawal latency vs vehicle,"[4]; acute, non-lesioned paw, 30 minutes, p<0.05",+15%
same,change of paw-withdrawal latency vs vehicle,"[4]; chronic, lesioned paw, 30 minutes, p<0.05",+108%
same,change of paw-withdrawal latency vs vehicle,"[4]; chronic, lesioned paw, 1 hour, p<0.05",93%
same,change of paw-withdrawal latency vs vehicle,"[4]; chronic, non-lesioned paw, 2 hours, p<0.05",−24%
same,change of paw-withdrawal latency vs vehicle,"[4]; chronic, non-lesioned paw, 4 hours, p<0.05",−23%
same,Paw Withdrawal Latency (s) Lesioned Paw,[4]; [5],11.7 (NS) s
same,Paw Withdrawal Latency (s) Non-lesioned Paw,[4]; [5],34.5 (NS) s

# Reference: patent US20070142396A1, “Treatment of pain with 1-[3-[4-(3-chlorophenyl)-1-piperazinyl]propyl]-5-methoxy-3,4-dihydro-2(1H)-quinolone or salt thereof” (Vela Pharmaceuticals, Inc., priority 2005, published 2007)
